{"source": "patent US6482824B1", "about": "“Use of n-substituted (3,6-dihydro)-2h-1,2-oxazine derivatives as selective mglur1 antagonists” (Eli Lilly and Company, priority 1998, dated 2002)", "experiment": "ability of test compounds to treat migraine (as described in U.S. Pat. No. 5,817,671, U.S. Pat. No. 5,792,763 and J. Neurosci. Methods 1998, 81, 19-24)", "conditions": "in vivo", "data": [{"smiles": "CCOc1ccc(C2ON(S(=O)(=O)c3ccc(C(=O)NC)cc3)C(C)C=C2C)cc1", "note": "(stereo not shown) [Example 5, 3,6-Dihydro-3,5-dimethyl-6-(4-ethoxyphenyl)-2-(4-methylcarbamoylbenzenesulphonyl)-2H-1,2-oxazine]", "values": [{"measurement": "effectiveness in treatment of migraine", "result": "particularly effective"}]}]}
